In the assay the test system is LNCaP cells transfected with CN390. The assay is described as follows: steroid hormone specificity of the 1.17-kb hKLK2 enhancer, luciferase reporter. It is filed as cell-based, human. Conditions: FIG. 14. On the procedure: To assess the androgen specificity of the hKLK2 enhancer, LNCaP cells transfected with CN390 (1.17-kb “full enhancer activity” hKLK2 enhancer/minimal hKLK2 promoter) were treated with various steroid hormones.
On the technique in general: A reporter such as luciferase makes a cellular process visible.
`CC/C(=C(/CC)c1ccc(O)cc1)c1ccc(O)cc1` [DES]: the “induction of luciferase activity by steroid hormone vs cells not treated with hormones” value (shortened to “induction … vs cells not treated with hormones”) is on record as “little or no inducibility”.

On to `C[C@@H]1C[C@H]2[C@@H]3CCC4=CC(=O)C=C[C@]4(C)[C@@]3(F)[C@@H](O)C[C@]2(C)[C@@]1(O)C(=O)CO` [DEX], for which the “induction … vs cells not treated with hormones” value is “little or no inducibility”.

In the case of `C[C@]12CCC(=O)C[C@@H]1CC[C@@H]1[C@@H]2CC[C@]2(C)[C@@H](O)CC[C@@H]12` [DHT, dihydrotestosterone], the “induction … vs cells not treated with hormones” value is on record as “marked increases in luciferase activity”.

Turning to `C[C@]1(O)CC[C@H]2[C@@H]3CCC4=CC(=O)CCC4=C3C=C[C@@]21C` [R1881, methyl trienolone], the “induction … vs cells not treated with hormones” value is listed as “marked increases in luciferase activity”.

The record behind these values is patent publication US6916918B2, “Human glandular kallikrein enhancer, vectors comprising the enhancer and methods of use thereof” (priority 1997, dated 2005).
